Results as given in ChEMBL document CHEMBL5058646 (2022).

Columns and labels:
[1] = target: Mitogen-activated protein kinase kinase kinase 5 (Homo sapiens) (UniProt Q99683); assay: MAP3K5 SGC Tm panel (DSF); details: Compound concentration 20.0 uM
[2] = target: Delta-type opioid receptor (Homo sapiens) (UniProt P41143); details: Compound concentration 10.0 uM
[3] = target: Serine/threonine-protein kinase ULK1 (Homo sapiens) (UniProt O75385); assay: ULK1 SGC Tm panel (DSF); details: Compound concentration 20.0 uM
[4] = target: SRSF protein kinase 1 (Homo sapiens) (UniProt Q96SB4); assay: SRPK1 SGC Tm panel (DSF); details: Compound concentration 20.0 uM
Chain of SRSF protein kinase 1 (Homo sapiens) (Q96SB4 whole entry): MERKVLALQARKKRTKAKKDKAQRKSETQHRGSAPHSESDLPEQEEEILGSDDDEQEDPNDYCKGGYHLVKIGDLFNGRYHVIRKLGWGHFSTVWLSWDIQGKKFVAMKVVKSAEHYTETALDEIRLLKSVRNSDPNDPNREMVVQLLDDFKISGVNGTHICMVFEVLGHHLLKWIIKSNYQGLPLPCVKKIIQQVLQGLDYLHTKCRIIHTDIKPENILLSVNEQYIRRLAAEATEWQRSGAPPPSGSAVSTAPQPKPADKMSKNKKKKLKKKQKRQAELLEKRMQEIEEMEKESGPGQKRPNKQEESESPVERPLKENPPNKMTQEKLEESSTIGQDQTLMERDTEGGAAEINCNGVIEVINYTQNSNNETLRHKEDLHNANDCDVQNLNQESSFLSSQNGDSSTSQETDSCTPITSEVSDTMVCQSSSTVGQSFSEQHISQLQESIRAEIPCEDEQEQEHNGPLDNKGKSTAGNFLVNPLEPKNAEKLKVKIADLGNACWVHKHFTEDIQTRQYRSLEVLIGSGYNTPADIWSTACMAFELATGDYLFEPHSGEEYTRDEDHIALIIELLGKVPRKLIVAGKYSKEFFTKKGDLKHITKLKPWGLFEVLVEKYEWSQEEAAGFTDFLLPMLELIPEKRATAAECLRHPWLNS

Peregrin (Homo sapiens) = Peregrin (Homo sapiens) (UniProt P55201); assay: BRPF1 SGC Tm panel (DSF); details: Compound concentration 20.0 uM
Chain of Peregrin (Homo sapiens) (P55201 whole entry): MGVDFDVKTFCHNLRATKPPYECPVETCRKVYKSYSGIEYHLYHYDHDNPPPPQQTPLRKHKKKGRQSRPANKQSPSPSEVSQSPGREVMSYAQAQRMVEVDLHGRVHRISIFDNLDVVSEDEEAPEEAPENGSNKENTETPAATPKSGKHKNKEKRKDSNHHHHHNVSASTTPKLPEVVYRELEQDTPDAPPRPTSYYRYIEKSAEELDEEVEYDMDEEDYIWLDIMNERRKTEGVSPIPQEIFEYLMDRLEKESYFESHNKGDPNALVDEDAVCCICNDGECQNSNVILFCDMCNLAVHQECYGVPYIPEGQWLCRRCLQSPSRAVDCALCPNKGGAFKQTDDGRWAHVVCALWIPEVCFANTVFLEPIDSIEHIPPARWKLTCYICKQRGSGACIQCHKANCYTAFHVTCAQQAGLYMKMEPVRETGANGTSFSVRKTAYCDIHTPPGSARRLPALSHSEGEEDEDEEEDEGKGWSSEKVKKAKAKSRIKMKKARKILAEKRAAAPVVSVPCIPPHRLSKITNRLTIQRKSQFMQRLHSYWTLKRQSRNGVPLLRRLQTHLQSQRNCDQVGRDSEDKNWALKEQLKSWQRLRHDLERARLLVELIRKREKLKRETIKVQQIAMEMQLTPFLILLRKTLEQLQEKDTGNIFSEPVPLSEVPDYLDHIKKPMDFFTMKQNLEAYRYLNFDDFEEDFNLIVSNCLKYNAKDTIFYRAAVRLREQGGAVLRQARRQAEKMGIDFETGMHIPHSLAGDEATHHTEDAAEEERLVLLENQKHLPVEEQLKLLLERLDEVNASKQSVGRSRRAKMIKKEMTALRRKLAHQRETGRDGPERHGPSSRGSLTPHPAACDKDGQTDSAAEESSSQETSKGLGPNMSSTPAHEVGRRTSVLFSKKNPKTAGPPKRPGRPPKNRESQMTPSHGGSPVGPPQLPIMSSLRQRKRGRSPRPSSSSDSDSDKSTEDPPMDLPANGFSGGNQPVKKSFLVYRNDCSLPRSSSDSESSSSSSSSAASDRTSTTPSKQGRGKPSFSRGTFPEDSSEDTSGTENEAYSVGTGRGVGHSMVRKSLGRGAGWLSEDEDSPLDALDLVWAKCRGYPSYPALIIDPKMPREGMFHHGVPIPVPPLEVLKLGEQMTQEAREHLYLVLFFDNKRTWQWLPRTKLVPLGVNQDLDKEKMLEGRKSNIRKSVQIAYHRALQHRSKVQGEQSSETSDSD

[5] = target: Serine/threonine-protein kinase VRK1 (Homo sapiens) (UniProt Q99986); assay: VRK1 SGC Tm panel (DSF); details: Compound concentration 20.0 uM
Chain of Serine/threonine-protein kinase VRK1 (Homo sapiens) (Q99986 whole entry): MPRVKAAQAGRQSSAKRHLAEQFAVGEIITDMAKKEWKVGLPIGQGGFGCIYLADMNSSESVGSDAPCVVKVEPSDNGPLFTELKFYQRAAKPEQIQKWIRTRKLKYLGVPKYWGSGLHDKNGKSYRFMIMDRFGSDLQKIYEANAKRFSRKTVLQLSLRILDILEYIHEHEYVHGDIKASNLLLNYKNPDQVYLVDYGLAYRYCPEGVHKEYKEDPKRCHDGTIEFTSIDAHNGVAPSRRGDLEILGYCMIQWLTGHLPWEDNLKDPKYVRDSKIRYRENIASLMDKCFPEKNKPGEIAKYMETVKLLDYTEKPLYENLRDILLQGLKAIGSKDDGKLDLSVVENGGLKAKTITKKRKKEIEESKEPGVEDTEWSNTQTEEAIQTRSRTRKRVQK

[6] = target: Transcription regulator protein BACH2 (Homo sapiens) (UniProt Q9BYV9); details: OCI-Ly1, Compound concentration 1.0 uM
Chain of Transcription regulator protein BACH2 (Homo sapiens) (Q9BYV9 whole entry): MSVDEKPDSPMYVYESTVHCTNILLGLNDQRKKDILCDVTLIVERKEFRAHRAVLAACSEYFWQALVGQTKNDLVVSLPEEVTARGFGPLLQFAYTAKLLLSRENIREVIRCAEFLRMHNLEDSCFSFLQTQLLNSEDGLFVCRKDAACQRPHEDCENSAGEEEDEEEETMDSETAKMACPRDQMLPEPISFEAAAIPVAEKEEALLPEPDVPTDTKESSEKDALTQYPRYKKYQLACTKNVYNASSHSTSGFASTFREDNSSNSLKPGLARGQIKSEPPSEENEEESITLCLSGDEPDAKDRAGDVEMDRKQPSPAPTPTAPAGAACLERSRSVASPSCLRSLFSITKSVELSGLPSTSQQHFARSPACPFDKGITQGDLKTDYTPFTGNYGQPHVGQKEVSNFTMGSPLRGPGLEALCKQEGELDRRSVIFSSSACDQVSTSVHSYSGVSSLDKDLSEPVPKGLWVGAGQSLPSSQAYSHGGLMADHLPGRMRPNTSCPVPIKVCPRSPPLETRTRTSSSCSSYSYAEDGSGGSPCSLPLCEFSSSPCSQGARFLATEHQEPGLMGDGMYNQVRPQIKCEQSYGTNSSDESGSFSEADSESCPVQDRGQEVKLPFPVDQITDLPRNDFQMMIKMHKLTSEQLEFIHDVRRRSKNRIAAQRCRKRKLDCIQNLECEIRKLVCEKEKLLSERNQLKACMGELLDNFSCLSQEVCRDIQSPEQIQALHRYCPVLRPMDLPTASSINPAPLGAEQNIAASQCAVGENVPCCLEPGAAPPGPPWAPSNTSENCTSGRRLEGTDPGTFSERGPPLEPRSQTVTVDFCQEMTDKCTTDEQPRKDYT

[7] = target: D(1A) dopamine receptor (Homo sapiens) (UniProt P21728); details: Compound concentration 10.0 uM
Chain of D(1A) dopamine receptor (Homo sapiens) (P21728 whole entry): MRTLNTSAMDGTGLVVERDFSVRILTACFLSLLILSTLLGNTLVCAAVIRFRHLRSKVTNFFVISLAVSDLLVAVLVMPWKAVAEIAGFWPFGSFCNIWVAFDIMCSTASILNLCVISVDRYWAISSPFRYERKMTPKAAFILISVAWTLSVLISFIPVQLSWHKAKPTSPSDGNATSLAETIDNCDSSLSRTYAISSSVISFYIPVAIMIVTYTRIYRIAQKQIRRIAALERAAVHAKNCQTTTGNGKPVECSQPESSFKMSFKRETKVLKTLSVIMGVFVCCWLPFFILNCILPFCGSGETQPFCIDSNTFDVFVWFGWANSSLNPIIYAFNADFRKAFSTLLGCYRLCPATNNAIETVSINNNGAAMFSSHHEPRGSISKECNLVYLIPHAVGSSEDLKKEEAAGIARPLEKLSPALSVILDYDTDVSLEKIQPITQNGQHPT

[8] = target: Serine/threonine-protein kinase WNK1 (Homo sapiens) (UniProt Q9H4A3); assay: WNK1 SGC Tm panel (DSF); details: Compound concentration 20.0 uM
[9] = target: T1, Zinc finger and BTB domain-containing protein 40 (Homo sapiens) (UniProt Q9NUA8); details: SUD4, Compound concentration 1.0 uM
T1 sequence (whole entry): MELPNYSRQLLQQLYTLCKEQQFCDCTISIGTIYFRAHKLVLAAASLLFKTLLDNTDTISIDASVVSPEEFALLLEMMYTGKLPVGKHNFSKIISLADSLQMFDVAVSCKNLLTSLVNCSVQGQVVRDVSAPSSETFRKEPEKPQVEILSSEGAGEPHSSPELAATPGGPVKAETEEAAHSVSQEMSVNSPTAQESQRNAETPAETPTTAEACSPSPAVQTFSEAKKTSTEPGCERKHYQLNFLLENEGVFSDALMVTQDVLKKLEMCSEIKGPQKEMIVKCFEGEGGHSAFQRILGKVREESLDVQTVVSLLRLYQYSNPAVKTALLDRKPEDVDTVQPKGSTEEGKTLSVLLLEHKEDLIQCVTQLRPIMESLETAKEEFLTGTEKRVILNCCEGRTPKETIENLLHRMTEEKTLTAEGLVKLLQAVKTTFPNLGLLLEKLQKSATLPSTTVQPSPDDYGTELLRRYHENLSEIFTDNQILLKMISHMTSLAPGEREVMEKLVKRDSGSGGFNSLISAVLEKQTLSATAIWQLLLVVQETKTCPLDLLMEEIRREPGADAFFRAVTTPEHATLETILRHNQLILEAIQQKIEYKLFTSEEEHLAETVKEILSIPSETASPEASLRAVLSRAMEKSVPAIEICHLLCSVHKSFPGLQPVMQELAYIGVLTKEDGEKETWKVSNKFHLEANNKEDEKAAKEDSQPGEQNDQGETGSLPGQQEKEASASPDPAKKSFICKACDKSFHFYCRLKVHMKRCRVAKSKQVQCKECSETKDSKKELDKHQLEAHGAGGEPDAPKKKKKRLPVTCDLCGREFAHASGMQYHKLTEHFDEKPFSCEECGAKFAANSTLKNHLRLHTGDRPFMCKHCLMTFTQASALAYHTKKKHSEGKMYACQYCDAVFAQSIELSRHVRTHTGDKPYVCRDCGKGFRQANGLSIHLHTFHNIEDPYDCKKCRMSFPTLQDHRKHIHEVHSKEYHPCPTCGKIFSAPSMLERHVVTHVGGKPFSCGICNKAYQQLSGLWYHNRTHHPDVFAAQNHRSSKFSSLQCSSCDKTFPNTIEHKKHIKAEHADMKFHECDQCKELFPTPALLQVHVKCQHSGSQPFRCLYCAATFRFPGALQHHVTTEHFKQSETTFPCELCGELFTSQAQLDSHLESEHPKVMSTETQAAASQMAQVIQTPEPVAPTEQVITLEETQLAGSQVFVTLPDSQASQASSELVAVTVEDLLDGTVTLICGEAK

[10] = target: Ribosomal protein S6 kinase alpha-1 (Homo sapiens) (UniProt Q15418); assay: RPS6KA1 SGC Tm panel (DSF); details: Compound concentration 20.0 uM
[11] = target: Mitogen-activated protein kinase 9 (Homo sapiens) (UniProt P45984); assay: MAPK9 SGC Tm panel (DSF); details: Compound concentration 20.0 uM
[12] = target: T2, Zinc finger and BTB domain-containing protein 10 (Homo sapiens) (UniProt Q96DT7); details: OCI-Ly1, Compound concentration 1.0 uM
T2 sequence (whole entry): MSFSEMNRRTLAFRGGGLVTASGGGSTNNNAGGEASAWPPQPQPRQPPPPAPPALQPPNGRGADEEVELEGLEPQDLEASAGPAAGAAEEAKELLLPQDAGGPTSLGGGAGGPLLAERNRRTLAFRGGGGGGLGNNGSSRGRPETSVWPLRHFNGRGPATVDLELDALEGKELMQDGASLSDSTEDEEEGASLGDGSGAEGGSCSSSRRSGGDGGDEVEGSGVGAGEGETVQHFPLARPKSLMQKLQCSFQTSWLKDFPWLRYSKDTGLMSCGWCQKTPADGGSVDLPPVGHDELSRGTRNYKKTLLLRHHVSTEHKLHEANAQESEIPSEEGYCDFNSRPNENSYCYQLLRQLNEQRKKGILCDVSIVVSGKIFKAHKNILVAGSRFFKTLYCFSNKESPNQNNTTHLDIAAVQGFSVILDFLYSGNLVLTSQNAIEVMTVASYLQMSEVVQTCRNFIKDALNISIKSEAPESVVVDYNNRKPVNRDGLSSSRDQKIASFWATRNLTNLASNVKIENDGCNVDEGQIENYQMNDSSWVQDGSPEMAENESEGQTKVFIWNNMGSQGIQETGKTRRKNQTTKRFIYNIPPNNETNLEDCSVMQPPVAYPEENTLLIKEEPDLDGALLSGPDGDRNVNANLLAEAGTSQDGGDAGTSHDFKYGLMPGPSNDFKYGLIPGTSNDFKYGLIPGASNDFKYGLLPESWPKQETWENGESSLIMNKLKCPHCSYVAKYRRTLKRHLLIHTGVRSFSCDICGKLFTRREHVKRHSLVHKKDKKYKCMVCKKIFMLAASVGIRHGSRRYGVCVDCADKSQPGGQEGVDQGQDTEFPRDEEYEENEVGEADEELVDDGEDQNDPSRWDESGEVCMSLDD

[13] = target: 5-hydroxytryptamine receptor 6 (Homo sapiens) (UniProt P50406); details: Compound concentration 10.0 uM
Chain of 5-hydroxytryptamine receptor 6 (Homo sapiens) (P50406 whole entry): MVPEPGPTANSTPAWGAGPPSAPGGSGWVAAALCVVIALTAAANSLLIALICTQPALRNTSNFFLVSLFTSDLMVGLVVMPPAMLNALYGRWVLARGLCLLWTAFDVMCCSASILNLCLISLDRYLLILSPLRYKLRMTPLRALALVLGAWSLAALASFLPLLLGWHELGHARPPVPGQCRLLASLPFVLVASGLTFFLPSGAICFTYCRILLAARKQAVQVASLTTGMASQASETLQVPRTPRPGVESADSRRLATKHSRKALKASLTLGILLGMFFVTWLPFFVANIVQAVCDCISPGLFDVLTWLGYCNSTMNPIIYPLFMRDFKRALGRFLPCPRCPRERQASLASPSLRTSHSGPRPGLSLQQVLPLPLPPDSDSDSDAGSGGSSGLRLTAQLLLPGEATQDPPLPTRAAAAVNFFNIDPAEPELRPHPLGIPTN

[14] = target: Maternal embryonic leucine zipper kinase (Homo sapiens) (UniProt Q14680); assay: MELK SGC Tm panel (DSF); details: Compound concentration 20.0 uM
[15] = target: Muscarinic acetylcholine receptor M1 (Homo sapiens) (UniProt P11229); details: Compound concentration 10.0 uM
Chain of Muscarinic acetylcholine receptor M1 (Homo sapiens) (P11229 whole entry): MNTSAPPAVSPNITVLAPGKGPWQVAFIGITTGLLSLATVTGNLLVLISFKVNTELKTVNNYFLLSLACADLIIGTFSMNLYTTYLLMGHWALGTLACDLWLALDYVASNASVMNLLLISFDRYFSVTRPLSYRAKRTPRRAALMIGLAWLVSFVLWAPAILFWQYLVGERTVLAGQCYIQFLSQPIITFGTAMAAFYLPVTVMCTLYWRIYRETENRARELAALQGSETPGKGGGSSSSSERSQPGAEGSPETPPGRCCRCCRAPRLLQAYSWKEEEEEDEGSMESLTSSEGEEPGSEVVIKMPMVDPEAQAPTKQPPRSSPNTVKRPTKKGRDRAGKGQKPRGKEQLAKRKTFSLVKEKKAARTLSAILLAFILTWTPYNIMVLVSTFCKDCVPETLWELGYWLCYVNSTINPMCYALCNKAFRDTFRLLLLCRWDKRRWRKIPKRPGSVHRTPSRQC

[16] = target: Calcium/calmodulin-dependent protein kinase kinase 2 (Homo sapiens) (UniProt Q96RR4); assay: CAMKK2 SGC Tm panel (DSF); details: Compound concentration 20.0 uM
Chain of Calcium/calmodulin-dependent protein kinase kinase 2 (Homo sapiens) (Q96RR4 2-588 limits assumed): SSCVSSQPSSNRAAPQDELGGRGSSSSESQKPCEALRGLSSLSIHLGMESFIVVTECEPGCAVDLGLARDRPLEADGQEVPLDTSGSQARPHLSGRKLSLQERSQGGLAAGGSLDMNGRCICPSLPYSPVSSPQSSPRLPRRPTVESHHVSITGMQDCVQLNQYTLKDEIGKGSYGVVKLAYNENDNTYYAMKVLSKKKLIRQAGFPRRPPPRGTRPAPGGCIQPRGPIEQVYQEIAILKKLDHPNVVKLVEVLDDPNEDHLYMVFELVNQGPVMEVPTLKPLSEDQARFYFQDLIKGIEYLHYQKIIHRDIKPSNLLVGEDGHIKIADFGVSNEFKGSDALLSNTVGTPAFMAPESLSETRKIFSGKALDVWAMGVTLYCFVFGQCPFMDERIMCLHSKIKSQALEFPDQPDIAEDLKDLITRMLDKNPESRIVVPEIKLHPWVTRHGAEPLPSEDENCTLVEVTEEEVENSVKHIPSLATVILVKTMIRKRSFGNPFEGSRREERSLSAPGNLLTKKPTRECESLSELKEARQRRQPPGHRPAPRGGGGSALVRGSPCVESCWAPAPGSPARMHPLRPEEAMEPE

C[C@@H]1CN(c2ncc(Cl)c(Nc3ccc4c(c3)n(CCC(C)(C)O)c(=O)n4C)n2)C[C@H](C)C1(F)F
inactive: Tm [1] 40 °C | inhibition [2] 18.1% | Tm [3] 41 °C | Tm [4] 45 °C | Tm (Peregrin (Homo sapiens)) 44 °C | Tm [5] 46 °C | LogFC [6] -0.00139 | inhibition [7] 27.3% | Tm [8] 51 °C | LogFC [9] -0.00123 | Tm [10] 50 °C | Tm [11] 54 °C | LogFC [12] 0.103 | inhibition [13] 3.94% | Tm [14] 41 °C | inhibition [15] 3.3% | Tm [16] 38 °C
